# In patent US20260306632A1, “NANOPARTICLES FOR PHOTOIMMUNE THERAPY COMPRISING PHOTOSENSITIZER AND ADJUVANT, AND USAGE THEREOF” (KOREA INSTITUTE OF SCIENCE AND TECHNOLOGY, priority 2022, published 2026):
# Like-named read-outs stand apart in the source and are kept apart here.
# Assay: Solubility of free imiquimod and imiquimod-oleic acid complex (ImO) in water
# Type: physicochemical
# Conditions: for solubility: highest/lowest concentration examined
# Description: Nanoparticles (ImiMB) were synthesized using a methylene blue-oleic acid complex (MBO) and Pluronic F-127 with imiquimod in a free imiquimod state without modifying imiquimod with oleic acid. […] Subsequently, 1 ml of distilled water (DW) was used instead of ImO complex solution in the rehydration step of the thin film (FIG. 2).
# Therefore, in the present invention, imiquimod was modified with an organic acid to form a cationic adjuvant-organic acid complex for solubility improvement and high-content loading, and then nanoparticles were prepared using the cationic adjuvant-organic acid complex.
solubility [µg/mL],solubility (read-out: solubility) [µg/mL],Compound,solubility in water (in words)
≥ 5000,–,imiquimod-oleic acid complex,"particle formation occurred well even at a high concentration of 5.0 mg/ml, maintaining a transparent solution form"
–,< 100,"CC(C)Cn1cnc2c(N)nc3ccccc3c21 [free imiquimod, imiquimod]",not soluble in water
